From article PMC11832194, “Cystatin from Austrelaps superbus snake venom as a model for identifying potential inhibitors of Trypanosoma cruzi cruzain” (The Journal of Venomous Animals and Toxins Including …, 2025)
Where two headings read alike, the source gives them in different places. No end group written: not given here.

Assays:
[1] = molecular target: T1, cruzain (Trypanosoma cruzi, UniProt P25779); experiment: Inhibition of cruzain enzymatic (proteolytic) activity, casein substrate; assay type: biochemical; conditions: cruzain 50 μM, peptide 500 to 62.5 μM, 1% casein substrate, Tris-HCl 0.1 M pH 8, 37°C, absorbance 280 nm, read-out: I50(µM) ± SD, inhibition of cruzain proteolytic activity
T1 construct: From 40 to 120 minutes, mature cruzain was obtained in a soluble and enzymatically active form; His tag (histidine tail); made in house; host or cells: E. coli BL21 DE3 (pET 21a (+) with the pro-cruzain gene)
Method: Cruzain at a final concentration of 50 μM was incubated for 30 minutes at 37°C with various concentrations of AsCystatin (50-6.25 μM). Subsequently, 1% casein substrate diluted in Tris-HCl 0.1 M, pH 8, was added. The mixture was incubated again for 30 minutes at 37°C, and the reaction was stopped by adding 250 μL of 20% Trichloroacetic Acid (TCA), followed by a 30-minute rest period at room temperature. Finally, the mixture was centrifuged at 10,000 × g for 15 minutes. Enzymatic activity inhibition was estimated by recording the absorbance of the supernatant at 280 nm using a microplate spectrophotometer (BioTek Eon). The concentration required to inhibit 50% of cruzain enzymatic activity was determined using GraphPad Prism 6.0 software.
The peptides designed, as mentioned in the previous section, were synthesized by AminoTech (São Paulo, Brazil). Subsequently, the ability of the synthetic peptides to inhibit cruzain enzymatic activity was assessed. For this procedure, different concentrations of each peptide (500 to 62.5 μM) were incubated with 50 μM cruzain, and the steps detailed in the section […] were carried out.

[2] = molecular target: epimastigote forms of clone CL B5 of Trypanosoma cruzi; experiment: In vitro trypanocidal activity on epimastigotes (CPRG, β-galactosidase); assay type: cell-based; conditions: T. cruzi CL B5 lacZ epimastigotes, 2.5 × 10^5 parasites/mL, 72 hours at 28°C, peptides 500-62.5 µM, CPRG read-out at 590 nm
Method: To assess the trypanocidal activity of the synthetic peptides, epimastigote forms of clone CL B5 of Trypanosoma cruzi, transfected with the Escherichia coli β-galactosidase gene (lacZ), were used. The parasites were cultivated at 28°C in liver infusion tryptose (LIT) medium, supplemented with 10% fetal bovine serum (FBS) and the antibiotics penicillin and streptomycin. About 200 µL of epimastigotes at 2.5 × 10^5 parasites/mL concentration were plated in a 96-well plate. The parasites were incubated at 28°C for 72 hours with different concentrations of peptides (500-62.5 µM). Then, 50 µL of chlorophenol red-β-D-galactopyranoside (CPRG) solution was added, reaching a final concentration of 200 µM. The plate was incubated again at 37°C for 4 hours, and absorbance was monitored at 590 nm using a spectrophotometer (Synergy H1 multi-mode BIOTEK). Benznidazole was used as a positive control. The half maximal inhibitory concentration (IC50) was determined using GraphPad Prism (v.6.01) software.

[3] = tested on: NCTC clone 929 fibroblasts; experiment: In vitro cytotoxicity on fibroblasts (resazurin); assay type: cell-based, murine; conditions: NCTC929 cells, 2 × 10^4 cells per well, 48 hours 37°C 5% CO2, peptides 500-62.5 µM, absorbance 570 and 600 nm
Method: In these experiments, NCTC clone 929 fibroblasts were cultured in a 96-well plate with 180 µL of minimal essential medium (MEM) supplemented with 10% FBS, penicillin and streptomycin antibiotics. About 2 × 10^4 cells per well were cultured and incubated at 37°C for 48 hours in a 5% CO2 environment with different concentrations of synthetic peptides (500-62.5 µM). Then, 20 µL of a resazurin solution was added, reaching a final concentration of 2 mM. The plate was incubated again at 37°C for 4 hours, and absorbance was monitored at 570 and 600 nm using a Synergy H1 multi-mode spectrophotometer (BIOTEK). GraphPad Prism software determined the half-maximal cytotoxic concentration (CC50) (v.6.01). The CC50 of the reference drug benznidazole was also determined to finally determine the selectivity index

[4] = read-out: IC50 (µM) ± SD, trypanocidal activity

T1 sequence (P25779 123-337): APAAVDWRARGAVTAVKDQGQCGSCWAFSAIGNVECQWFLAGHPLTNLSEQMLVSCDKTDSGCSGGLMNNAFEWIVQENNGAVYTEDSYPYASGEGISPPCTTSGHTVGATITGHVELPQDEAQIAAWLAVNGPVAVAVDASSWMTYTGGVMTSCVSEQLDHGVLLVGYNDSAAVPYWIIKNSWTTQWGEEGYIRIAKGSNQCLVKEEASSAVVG

Row | Substance | IC50 ([1]; SD) | IC50 ([2]; SD) | IC50 (µM) ± SD, cytotoxic activity [3] | IC50 [1] | IC50 [2, 4]
1 | GGLQVVTGPW [Pep5] | 220 ± 0.48 µM | 475.5 ± 1.65 µM | > 500 µM | – | –
2 | IPGGLSK [Pep1] | – | – | > 500 µM | > 500 µM | > 500 µM
3 | KGGLQVVTGAPWK [Pep7] | 388.5 ± 1.22 µM | 390.2 ± 2.1 µM | > 500 µM | – | –
4 | KGGLQVVTGPWK [Pep6] | 384.6 ± 0.77 µM | – | > 500 µM | – | > 500 µM
5 | KIPGGQVVTGPWK [Pep8] | 281.5 ± 2.19 µM | 471.3 ± 1.8 µM | > 500 µM | – | –
6 | KQVVTGK [Pep4, linear peptide derived from AsCystatin with lysine residues at each end] | – | – | > 500 µM | > 500 µM | > 500 µM
7 | QSQVVTGAK [Pep3] | – | – | > 500 µM | > 500 µM | > 500 µM
8 | QVVTG [Pep2] | – | – | > 500 µM | > 500 µM | > 500 µM
